The numbers were not newly measured in paper PMC9851200, “Multiparameter phenotypic screening for endogenous TFEB and TFE3 translocation identifies novel chemical series modulating lysosome function” (Autophagy, 2022), which cites them from elsewhere.

Set-up in all cases: method as in original PKIS2 published data
In series [1] the target is kinases (KINOMEscan panel) (Homo sapiens, UniProt P27448). The note with it: MARK3; Published KINOMEscan; ref original PKIS2 published data; cited from earlier work.
Series [2] has as its target kinases (KINOMEscan panel) (Homo sapiens, UniProt P31749). The conditions noted are these: kinase AKT1; Published KINOMEscan; ref original PKIS2 published data; cited from earlier work.
Series [3] deals with kinases (KINOMEscan panel) (Homo sapiens, UniProt P36894). The conditions noted are these: kinase BMPR1A; Published KINOMEscan; ref original PKIS2 published data; cited from earlier work.
In series [4] the target is T1, kinases (KINOMEscan panel) (Homo sapiens, UniProt P57058).
T1 sequence (P57058 1-714): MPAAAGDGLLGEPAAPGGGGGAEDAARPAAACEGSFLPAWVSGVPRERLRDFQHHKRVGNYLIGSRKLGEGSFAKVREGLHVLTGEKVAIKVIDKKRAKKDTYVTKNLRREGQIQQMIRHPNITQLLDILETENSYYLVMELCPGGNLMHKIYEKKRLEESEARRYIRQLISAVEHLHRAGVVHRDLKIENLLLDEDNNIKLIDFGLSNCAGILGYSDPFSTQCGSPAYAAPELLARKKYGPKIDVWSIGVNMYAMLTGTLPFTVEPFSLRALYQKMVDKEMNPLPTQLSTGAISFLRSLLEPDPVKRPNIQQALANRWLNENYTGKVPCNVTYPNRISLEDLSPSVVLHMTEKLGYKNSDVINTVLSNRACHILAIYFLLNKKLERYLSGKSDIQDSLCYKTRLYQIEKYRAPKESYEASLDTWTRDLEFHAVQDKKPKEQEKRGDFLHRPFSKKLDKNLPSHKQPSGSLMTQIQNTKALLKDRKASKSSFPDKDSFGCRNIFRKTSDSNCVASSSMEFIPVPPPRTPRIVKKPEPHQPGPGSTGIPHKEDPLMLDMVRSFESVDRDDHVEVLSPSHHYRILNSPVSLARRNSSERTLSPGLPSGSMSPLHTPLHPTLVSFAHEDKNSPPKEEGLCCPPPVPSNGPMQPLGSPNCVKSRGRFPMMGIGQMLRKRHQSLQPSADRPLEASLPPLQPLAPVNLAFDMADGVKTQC
The conditions noted are these: kinase HUNK; Published KINOMEscan; ref original PKIS2 published data; cited from earlier work.

The target in series [5] is kinases (KINOMEscan panel) (Homo sapiens, UniProt Q07912). The note with it: TNK2; Published KINOMEscan; ref original PKIS2 published data; cited from earlier work.
For series [6], the target named is T2, kinases (KINOMEscan panel) (Homo sapiens, UniProt Q56UN5).
T2 sequence (Q56UN5 1-1328): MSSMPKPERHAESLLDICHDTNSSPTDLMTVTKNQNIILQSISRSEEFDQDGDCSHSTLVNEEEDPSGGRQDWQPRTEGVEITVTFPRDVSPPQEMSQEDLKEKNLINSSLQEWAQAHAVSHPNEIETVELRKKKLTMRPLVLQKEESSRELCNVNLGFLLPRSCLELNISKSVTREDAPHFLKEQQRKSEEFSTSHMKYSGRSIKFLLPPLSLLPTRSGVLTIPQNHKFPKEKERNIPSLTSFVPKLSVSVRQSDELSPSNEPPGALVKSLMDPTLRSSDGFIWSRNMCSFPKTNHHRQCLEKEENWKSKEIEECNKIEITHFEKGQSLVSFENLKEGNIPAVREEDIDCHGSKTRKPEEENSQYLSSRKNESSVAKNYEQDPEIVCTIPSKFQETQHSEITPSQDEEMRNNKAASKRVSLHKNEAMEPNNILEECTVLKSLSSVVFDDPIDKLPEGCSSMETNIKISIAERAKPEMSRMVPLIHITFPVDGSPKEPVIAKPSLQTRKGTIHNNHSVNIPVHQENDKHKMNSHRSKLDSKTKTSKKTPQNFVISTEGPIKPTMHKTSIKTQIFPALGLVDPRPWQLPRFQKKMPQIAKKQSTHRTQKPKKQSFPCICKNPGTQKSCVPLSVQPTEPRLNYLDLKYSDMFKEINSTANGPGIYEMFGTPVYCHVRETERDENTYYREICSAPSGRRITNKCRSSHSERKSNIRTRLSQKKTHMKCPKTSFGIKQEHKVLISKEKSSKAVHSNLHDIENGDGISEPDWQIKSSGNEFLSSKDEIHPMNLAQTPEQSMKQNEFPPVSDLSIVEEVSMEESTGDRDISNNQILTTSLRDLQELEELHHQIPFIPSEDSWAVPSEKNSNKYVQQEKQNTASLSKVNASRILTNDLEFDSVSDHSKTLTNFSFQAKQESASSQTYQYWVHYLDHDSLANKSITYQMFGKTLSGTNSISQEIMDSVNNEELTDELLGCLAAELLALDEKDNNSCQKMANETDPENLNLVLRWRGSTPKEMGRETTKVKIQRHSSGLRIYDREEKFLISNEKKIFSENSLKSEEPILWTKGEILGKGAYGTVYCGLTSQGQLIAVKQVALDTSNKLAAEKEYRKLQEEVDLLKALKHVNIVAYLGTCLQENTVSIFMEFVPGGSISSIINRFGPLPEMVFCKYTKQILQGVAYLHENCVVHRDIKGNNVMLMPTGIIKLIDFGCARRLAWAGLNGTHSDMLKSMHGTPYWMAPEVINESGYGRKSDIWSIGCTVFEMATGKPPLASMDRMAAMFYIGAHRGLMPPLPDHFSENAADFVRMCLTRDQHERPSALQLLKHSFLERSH
The conditions noted are these: Published KINOMEscan; ref original PKIS2 published data; cited from earlier work.

In series [7] the target is kinases (KINOMEscan panel) (Homo sapiens, UniProt Q86Y07). The note with it: Published KINOMEscan; ref original PKIS2 published data; cited from earlier work.
Series [8] has as its target kinases (KINOMEscan panel) (Homo sapiens, UniProt Q99558). The note with it: kinase MAP3K14; Published KINOMEscan; ref original PKIS2 published data; cited from earlier work.
Series [9] concerns the target kinases (KINOMEscan panel) (Homo sapiens, UniProt Q9H4B4). The conditions noted are these: kinase PLK3; Published KINOMEscan; ref original PKIS2 published data; cited from earlier work.
The subject of series [10] is kinases (KINOMEscan panel). The note with it: Published KINOMEscan, ref original PKIS2 published data, cited from earlier work.

Like-named read-outs stand apart in the source and are kept apart here.

Chain of kinases (KINOMEscan panel) (Homo sapiens, UniProt P36894) (P36894 24-532): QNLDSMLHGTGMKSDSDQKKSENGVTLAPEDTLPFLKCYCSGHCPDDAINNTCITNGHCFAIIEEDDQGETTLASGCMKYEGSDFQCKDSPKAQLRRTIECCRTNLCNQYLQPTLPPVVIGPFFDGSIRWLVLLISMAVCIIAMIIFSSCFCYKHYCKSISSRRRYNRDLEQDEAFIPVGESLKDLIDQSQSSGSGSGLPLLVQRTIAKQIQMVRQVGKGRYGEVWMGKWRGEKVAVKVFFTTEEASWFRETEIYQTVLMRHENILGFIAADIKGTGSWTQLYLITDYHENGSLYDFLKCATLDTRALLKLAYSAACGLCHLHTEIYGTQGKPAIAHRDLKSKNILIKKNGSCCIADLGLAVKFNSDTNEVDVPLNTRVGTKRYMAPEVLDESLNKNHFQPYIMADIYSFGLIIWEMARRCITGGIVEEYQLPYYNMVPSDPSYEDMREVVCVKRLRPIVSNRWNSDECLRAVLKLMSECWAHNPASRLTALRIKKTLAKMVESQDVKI
Chain of kinases (KINOMEscan panel) (Homo sapiens, UniProt Q9H4B4) (Q9H4B4 whole entry): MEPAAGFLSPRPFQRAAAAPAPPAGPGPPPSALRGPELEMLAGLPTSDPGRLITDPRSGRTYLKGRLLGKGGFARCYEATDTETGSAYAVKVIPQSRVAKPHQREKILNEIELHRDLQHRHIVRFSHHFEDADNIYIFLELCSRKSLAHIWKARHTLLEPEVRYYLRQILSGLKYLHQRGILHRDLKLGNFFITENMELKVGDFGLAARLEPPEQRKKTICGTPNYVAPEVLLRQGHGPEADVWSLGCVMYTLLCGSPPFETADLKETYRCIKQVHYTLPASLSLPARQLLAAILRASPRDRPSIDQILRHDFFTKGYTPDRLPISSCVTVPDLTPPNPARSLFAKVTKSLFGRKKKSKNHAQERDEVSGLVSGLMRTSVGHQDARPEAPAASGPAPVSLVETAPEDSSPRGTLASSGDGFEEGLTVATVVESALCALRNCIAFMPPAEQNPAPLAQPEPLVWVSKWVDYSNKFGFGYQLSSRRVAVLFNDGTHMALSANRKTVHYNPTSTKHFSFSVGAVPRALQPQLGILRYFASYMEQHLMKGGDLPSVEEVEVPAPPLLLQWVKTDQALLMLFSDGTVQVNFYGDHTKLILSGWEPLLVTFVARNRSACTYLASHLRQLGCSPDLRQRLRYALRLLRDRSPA
Chain of kinases (KINOMEscan panel) (Homo sapiens, UniProt Q99558) (Q99558 whole entry): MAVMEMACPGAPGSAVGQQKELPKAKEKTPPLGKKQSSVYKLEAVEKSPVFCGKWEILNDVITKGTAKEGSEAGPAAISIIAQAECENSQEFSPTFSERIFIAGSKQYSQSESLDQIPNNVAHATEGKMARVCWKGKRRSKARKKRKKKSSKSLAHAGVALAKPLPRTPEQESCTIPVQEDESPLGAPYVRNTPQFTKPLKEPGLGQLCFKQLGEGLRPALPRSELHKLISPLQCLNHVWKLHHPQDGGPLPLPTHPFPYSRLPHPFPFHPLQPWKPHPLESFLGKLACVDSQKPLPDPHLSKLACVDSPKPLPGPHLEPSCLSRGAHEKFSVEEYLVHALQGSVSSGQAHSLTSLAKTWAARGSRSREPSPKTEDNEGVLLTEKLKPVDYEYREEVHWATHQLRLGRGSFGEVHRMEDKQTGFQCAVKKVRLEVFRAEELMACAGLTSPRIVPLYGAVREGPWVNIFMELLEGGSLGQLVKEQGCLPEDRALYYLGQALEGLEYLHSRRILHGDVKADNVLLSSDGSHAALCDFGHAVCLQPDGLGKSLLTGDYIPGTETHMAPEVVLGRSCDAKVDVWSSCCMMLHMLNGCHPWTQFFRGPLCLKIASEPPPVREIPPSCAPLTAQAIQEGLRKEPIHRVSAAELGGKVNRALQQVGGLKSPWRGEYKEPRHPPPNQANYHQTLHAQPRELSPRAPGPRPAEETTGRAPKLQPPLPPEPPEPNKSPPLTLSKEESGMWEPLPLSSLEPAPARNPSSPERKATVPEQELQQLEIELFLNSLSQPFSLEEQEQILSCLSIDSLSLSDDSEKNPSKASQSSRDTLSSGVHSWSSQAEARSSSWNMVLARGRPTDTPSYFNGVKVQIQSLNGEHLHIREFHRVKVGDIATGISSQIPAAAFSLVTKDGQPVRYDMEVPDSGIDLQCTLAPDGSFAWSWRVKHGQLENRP
Chain of kinases (KINOMEscan panel) (Homo sapiens, UniProt Q86Y07) (Q86Y07 whole entry): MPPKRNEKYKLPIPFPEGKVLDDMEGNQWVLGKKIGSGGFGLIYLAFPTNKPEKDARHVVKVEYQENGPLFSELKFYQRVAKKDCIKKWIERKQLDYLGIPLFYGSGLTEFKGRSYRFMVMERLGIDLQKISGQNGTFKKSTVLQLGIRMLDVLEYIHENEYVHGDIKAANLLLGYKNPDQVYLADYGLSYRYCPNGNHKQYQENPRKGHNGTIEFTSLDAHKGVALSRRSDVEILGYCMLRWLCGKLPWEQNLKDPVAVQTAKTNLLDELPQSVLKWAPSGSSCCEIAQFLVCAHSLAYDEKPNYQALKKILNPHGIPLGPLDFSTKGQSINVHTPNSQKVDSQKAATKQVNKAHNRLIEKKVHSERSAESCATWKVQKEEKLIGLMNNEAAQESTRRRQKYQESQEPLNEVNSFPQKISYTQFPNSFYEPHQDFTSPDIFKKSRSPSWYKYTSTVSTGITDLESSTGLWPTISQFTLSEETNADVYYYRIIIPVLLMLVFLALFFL
Chain of kinases (KINOMEscan panel) (Homo sapiens, UniProt P27448) (P27448 whole entry): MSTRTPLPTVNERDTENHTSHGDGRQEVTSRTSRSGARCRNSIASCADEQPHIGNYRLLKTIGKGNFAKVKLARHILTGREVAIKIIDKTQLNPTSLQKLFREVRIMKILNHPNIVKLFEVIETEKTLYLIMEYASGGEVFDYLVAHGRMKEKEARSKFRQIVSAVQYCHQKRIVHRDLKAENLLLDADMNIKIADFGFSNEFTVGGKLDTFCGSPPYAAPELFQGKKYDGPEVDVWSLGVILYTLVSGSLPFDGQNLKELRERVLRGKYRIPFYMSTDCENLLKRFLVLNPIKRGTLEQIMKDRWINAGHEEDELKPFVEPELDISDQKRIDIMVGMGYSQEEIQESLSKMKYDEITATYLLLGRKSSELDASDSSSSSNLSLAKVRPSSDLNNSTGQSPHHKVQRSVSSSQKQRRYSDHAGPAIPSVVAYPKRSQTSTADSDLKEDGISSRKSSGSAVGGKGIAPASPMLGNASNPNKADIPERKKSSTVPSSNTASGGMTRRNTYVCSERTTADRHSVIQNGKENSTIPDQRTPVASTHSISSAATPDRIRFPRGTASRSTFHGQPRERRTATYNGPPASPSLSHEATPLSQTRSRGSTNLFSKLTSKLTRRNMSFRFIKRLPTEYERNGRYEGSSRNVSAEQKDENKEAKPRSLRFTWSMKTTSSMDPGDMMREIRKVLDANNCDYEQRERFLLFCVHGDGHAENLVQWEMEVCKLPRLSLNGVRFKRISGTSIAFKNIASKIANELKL
Chain of kinases (KINOMEscan panel) (Homo sapiens, UniProt Q07912) (Q07912 whole entry): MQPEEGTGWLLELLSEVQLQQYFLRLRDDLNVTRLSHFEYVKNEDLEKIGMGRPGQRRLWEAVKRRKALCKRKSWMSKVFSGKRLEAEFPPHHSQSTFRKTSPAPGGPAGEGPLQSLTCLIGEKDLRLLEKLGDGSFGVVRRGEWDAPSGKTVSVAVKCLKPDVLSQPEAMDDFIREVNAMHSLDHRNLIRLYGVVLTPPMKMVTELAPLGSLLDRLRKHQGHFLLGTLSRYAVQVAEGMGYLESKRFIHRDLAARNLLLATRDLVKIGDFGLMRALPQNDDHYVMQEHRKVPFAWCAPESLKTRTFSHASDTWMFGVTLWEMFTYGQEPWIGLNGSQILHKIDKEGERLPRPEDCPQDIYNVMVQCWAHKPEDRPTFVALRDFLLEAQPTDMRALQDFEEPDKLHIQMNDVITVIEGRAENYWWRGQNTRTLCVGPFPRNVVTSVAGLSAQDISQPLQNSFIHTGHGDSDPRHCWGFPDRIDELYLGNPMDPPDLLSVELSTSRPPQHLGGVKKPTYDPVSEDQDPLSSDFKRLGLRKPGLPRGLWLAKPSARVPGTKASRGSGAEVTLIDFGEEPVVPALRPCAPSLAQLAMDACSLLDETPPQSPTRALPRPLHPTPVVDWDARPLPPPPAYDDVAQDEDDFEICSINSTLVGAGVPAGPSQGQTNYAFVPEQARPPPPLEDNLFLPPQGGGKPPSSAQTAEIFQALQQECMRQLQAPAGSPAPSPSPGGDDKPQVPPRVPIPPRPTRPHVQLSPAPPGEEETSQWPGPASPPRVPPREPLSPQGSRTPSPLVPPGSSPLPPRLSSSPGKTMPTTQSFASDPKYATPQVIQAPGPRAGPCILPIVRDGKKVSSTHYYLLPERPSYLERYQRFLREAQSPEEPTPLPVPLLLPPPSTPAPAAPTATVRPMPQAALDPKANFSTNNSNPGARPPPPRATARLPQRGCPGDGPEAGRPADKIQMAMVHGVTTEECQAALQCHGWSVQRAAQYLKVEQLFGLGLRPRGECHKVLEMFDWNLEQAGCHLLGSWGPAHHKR
Chain of kinases (KINOMEscan panel) (Homo sapiens, UniProt P31749) (P31749 whole entry): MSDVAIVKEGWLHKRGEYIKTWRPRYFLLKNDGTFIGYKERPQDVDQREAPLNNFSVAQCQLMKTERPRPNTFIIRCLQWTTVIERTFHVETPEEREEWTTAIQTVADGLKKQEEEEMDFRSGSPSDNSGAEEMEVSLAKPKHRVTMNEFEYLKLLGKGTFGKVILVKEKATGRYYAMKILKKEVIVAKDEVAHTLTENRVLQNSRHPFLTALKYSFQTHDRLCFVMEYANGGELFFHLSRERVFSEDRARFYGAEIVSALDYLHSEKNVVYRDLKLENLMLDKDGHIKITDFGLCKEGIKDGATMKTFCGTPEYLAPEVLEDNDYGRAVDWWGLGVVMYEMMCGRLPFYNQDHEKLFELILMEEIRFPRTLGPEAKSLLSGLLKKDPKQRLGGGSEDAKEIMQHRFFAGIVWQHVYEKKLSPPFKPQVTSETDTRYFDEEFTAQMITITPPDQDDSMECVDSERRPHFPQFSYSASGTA

In the case of `Cc1cccc(-c2nc(Nc3ccncc3)c3ccccc3n2)n1` [NK215], in series [1], the “KINOMEscan MARK3” value was 32. Further, in series [2], the “KINOMEscan AKT1” value is listed as 20. Also, the “KINOMEscan BMPR1A” value in series [3] is 0. Moreover, the “KINOMEscan HUNK” value in [4] was 0. The “KINOMEscan TNK2” value in [5] is given as 0. Further, in series [6], the “KINOMEscan MAP3K19” value was 0. Moreover, in [7], the “KINOMEscan VRK2” value is given as 0. For the same molecule, the “KINOMEscan MAP3K14” value in series [8] is 0. For the same molecule, in [9], the “KINOMEscan PLK3” value is on record as 0. The entries for the “KINOMEscan PRKAA2” value in [10] and in series [10] (kinase PRKAA2) were 0 and 12, respectively.
